Laboratory results as given in ChEMBL document CHEMBL1201862, “PubChem BioAssay data set” (2004).
Active and inactive are the calls of the source.

What was measured:
[1] = biological target: T1, NAD-dependent protein deacylase sirtuin-5, mitochondrial (Homo sapiens, UniProt Q9NXA8); test: SIRT5 desuccinylase inhibitors, dose response, biochemical, fluorescence imaging, cherry-pick, set 5 (AID 720591);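 also: desuccinylation of succinyl peptide AMC substrate read as fluorescence after trypsin release; potency of inhibitors that lower fluorescence and may act on trypsin instead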
[2] = biological target: T1, NAD-dependent protein deacylase sirtuin-5, mitochondrial; test: SIRT5 deacylase inhibitors, dose response, biochemical, fluorescence imaging, cherry-pick, set 6 (AID 720597)
[3] = ADAM10 inhibitors, peptide cleavage, dose response, biochemical, QFRET (AID 743254);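 also: ADAM10 enzyme with the DM2 quenched FRET peptide as substrate; EDANS fluorescence gain as the protease cuts the substrate; inhibitor potency against ADAM10 proteolytic activity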
[4] = biological target: Disintegrin and metalloproteinase domain-containing protein 17 (Homo sapiens, UniProt P78536); test: ADAM17 protease inhibitors, dose response, counter-screen for ADAM10 exosite inhibitor project, biochemical, quenched FRET substrate (AID 743253)
[5] = biological target: T2, Streptokinase A (Streptococcus pyogenes serotype M1, UniProt P10520); test: S. pyogenes streptokinase expression inhibitors, potency, dose response, plasminogen activation absorbance, OD405 (AID 1914); assay type: functional, Streptococcus pyogenes M1 GAS;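 also: secreted streptokinase activity via plasminogen activation per viability signal from cell pellet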
T2 sequence (P10520 whole entry): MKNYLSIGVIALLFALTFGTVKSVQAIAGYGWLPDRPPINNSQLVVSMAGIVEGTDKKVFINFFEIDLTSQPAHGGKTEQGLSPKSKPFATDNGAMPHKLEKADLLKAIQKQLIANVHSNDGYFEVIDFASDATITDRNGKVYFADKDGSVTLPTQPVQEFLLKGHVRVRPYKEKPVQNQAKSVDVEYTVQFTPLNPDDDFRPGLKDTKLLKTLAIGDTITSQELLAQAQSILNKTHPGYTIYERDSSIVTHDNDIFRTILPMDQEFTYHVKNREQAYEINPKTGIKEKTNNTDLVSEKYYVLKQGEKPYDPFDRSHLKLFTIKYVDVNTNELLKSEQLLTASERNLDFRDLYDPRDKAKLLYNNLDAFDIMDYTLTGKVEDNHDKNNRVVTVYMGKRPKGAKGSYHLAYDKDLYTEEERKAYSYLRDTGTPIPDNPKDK

[6] = system: Streptococcus; test: Group A Streptococcus viability loss, dose response, counter-screen for streptokinase expression inhibitor project, luminescence, BacTiterGlo (AID 1915); assay type: functional, organism-based;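 also: potency for reduction of bacterial viability or growth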
[7] = biological target: T3, Methionyl-tRNA synthetase, putative (Trypanosoma brucei brucei, UniProt Q38C91); assay type: functional, Trypanosoma brucei brucei strain 927/4 GUTat10.1
T3 sequence (Q38C91 whole entry): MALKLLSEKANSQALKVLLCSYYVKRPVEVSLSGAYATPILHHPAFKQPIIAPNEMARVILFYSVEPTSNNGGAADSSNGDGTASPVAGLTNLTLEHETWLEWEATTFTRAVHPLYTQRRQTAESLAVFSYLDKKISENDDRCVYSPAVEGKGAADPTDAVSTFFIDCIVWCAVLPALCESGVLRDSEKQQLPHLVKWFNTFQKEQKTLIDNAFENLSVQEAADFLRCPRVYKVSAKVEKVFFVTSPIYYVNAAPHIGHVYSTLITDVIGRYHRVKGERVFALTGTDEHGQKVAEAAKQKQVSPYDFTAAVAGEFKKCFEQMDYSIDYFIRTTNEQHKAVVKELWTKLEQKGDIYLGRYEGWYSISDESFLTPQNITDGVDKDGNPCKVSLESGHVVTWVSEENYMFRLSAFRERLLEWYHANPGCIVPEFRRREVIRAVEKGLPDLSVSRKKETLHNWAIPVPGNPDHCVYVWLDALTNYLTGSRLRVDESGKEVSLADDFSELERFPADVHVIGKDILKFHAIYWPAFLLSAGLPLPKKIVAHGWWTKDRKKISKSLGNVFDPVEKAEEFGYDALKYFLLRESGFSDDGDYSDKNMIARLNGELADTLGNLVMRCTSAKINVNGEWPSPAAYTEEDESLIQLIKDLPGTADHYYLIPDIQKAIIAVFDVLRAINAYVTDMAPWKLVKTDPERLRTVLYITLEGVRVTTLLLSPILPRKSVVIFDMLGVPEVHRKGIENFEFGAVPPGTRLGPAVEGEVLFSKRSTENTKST

[8] = biological target: Cytochrome P450 2D6 (Homo sapiens, UniProt P10635);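 also: CYP2D6 member of a cytochrome P450 panel assay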
[9] = biological target: T3, Methionyl-tRNA synthetase, putative; assay type: functional, Trypanosoma brucei brucei strain 927/4 GUTat10.1; remark: listed apart in the source
[10] = system: Streptococcus sp. 'group A'; test: growth inhibition of control SK(-) GAS strain, dose response, counter-screen for streptokinase expression inhibitor project, luminescence, kanamycin, BacTiterGlo, confirmation (AID 1900); assay type: functional, organism-based
[11] = Late stage counterscreen for inhibitors of Trypanosoma brucei methionyl tRNA synthetase (MetRS): Luminescence-based cell-based high throughput dose response assay to identify compounds that are cytotoxic to Jurkat human T lymphocyte cells.; assay type: functional
[12] = Luminescence Cell-Based Dose Retest to Confirm Inhibitors of Cancer Stem Cells. [Related pubchem assays (depositor defined):AID2717, AID2721]; assay type: functional; conditions: Homo sapiens
[13] = Counterscreen for inhibitors of Trypanosoma brucei methionyl tRNA synthetase (MetRS): Luminescence-based cell-based high throughput dose response assay to identify compounds that are cytotoxic to Jurkat human T lymphocyte cells.; assay type: functional
[14] = HepG2 cell cytotoxicity, dose response, cytotoxicity control, luminescence plate reader, powder samples, set 2 (AID 651860); assay type: functional, cell-based
[15] = HEK293T cell cytotoxicity, dose response, cytotoxicity control, luminescence plate reader, powder samples, set 4 (AID 651863); assay type: functional, cell-based; conditions: HEK293
[16] = biological target: COUP transcription factor 2 (Homo sapiens, UniProt P24468); test: Luminescence-based cell-based high throughput dose response assay to identify inhibitors of COUP-TFII (NR2F2).; assay type: functional;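 also: HEK293 cells transiently cotransfected with COUP-TFII expression vector and reporter; luciferase reporter luminescence driven by COUP-TFII from the pX2-168 reporter plasmid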
COUP transcription factor 2, sequence (P24468 whole entry): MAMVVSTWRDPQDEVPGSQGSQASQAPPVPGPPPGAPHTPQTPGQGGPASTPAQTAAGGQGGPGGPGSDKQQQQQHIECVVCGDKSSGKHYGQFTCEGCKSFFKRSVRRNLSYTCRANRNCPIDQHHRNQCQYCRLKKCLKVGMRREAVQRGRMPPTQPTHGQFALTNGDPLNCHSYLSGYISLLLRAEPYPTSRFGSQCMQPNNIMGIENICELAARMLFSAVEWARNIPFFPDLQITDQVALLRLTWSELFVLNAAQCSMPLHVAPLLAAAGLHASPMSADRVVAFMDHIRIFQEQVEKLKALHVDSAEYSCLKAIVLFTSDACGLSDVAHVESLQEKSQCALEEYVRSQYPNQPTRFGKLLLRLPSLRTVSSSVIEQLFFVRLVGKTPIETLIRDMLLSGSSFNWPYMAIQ

T1 sequence (Q9NXA8 whole entry): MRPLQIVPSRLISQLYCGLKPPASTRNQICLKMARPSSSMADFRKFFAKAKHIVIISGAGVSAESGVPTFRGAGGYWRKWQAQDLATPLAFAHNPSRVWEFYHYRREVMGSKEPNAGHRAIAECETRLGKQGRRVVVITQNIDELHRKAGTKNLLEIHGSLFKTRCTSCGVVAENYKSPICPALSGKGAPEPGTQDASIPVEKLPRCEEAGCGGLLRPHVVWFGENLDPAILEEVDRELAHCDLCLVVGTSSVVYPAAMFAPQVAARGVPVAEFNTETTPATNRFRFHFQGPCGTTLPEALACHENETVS
Disintegrin and metalloproteinase domain-containing protein 17, sequence (P78536 whole entry, the tested form may be a part): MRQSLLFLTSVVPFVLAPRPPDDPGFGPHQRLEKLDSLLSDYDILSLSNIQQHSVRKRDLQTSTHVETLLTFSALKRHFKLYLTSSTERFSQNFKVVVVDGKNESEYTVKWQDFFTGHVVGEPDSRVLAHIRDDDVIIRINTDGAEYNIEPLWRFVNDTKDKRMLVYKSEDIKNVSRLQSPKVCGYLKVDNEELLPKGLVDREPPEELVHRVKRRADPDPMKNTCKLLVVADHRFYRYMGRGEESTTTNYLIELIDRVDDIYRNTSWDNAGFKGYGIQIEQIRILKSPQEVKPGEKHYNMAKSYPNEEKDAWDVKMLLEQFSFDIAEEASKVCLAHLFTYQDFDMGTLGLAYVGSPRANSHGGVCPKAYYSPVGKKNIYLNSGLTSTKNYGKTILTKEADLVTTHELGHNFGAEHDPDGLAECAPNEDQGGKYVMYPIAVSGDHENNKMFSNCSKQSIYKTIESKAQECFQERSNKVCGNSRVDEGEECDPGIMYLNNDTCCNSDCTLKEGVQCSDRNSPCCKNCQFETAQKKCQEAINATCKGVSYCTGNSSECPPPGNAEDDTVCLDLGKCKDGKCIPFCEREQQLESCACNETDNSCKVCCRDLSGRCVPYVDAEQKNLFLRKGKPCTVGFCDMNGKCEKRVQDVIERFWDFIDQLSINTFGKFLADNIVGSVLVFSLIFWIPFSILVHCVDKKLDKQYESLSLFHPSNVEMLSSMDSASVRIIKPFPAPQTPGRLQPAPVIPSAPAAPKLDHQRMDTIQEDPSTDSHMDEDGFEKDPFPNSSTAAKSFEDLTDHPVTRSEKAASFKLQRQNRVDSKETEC
Cytochrome P450 2D6, sequence (P10635 whole entry): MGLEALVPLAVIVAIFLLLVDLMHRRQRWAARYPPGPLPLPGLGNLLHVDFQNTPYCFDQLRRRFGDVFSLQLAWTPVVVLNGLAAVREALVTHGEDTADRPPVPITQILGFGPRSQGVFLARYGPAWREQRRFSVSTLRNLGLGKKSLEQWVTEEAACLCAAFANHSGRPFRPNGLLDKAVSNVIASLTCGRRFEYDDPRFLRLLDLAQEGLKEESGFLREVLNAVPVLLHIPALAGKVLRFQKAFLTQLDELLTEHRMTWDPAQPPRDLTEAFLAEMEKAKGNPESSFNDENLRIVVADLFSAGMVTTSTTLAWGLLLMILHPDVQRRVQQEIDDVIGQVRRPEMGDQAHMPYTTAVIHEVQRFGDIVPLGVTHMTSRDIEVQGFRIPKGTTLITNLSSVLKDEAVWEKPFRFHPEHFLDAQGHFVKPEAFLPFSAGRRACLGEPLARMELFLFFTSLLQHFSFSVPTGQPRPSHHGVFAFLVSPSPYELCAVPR

## CC(C)C[C@H](NS(=O)(=O)c1ccc(F)cc1F)C(=O)N1CCC[C@H]1C(=O)NCc1ccccc1
[1]
  AC50: 15.3 µM (active)

## O=C(O)CCNc1ncnc2ccccc12
[2]
  AC50: > 30 µM (inactive)

## O=C(CC1S/C(=N\c2ccccc2)N(Cc2ccccn2)C1=O)Nc1ccc(Br)cc1 (stereo unspecified)
[3]
  IC50: 37.4 µM (inactive)
[4]
  IC50: > 69.5 µM (inactive)

## O=C(NNC(=O)c1cc(-c2ccc(Cl)c(Cl)c2)nc2ccccc12)Nc1ccccc1
[5]
  EC50: > 150 µM (not active)
[6]
  EC50: 13.7 µM (active)
[7]
  IC50: 3.12 µM (active)
[8]
  AC50: 20 µM (inconclusive)
[9]
  IC50: 1.64 µM (active)
[10]
  EC50: 4.69 µM (active)
[11]
  IC50: 22.4 µM (inactive)
[12]
  AC50: 4.94 µM (active)
[13]
  IC50: 34.2 µM (inactive)

## COc1ccc(CC/N=C2\C=C(NS(=O)(=O)c3c(C)cc(C)cc3C)c3ccccc3C2=O)cc1
[14]
  AC50: > 52 µM (inactive)
[15]
  AC50: > 52 µM (inactive)

## Cc1nn(C)c(C)c1NC(=O)COc1ccc(Cl)cc1Br
[16]
  IC50: 8.76 µM (active)
